Calls of active or inactive are those of the source.
Legend:
HEK293 = test: EBV LMP1 TES2 canonical NF-kB signalling blockers – cell-based, HEK293, luciferase, cherry-pick, dose response (AID 588343); format: functional; settings: Homo sapiens
Vero [1] = test: viability of Vero cells under compound – cytotoxicity control for flavivirus capping enzyme inhibitors (AID 588742); format: functional; settings: Chlorocebus sabaeus
[2] = target: T1, Histone-lysine N-methyltransferase NSD2 (Homo sapiens, UniProt O96028); format: biochemical
T1 sequence (O96028 whole entry): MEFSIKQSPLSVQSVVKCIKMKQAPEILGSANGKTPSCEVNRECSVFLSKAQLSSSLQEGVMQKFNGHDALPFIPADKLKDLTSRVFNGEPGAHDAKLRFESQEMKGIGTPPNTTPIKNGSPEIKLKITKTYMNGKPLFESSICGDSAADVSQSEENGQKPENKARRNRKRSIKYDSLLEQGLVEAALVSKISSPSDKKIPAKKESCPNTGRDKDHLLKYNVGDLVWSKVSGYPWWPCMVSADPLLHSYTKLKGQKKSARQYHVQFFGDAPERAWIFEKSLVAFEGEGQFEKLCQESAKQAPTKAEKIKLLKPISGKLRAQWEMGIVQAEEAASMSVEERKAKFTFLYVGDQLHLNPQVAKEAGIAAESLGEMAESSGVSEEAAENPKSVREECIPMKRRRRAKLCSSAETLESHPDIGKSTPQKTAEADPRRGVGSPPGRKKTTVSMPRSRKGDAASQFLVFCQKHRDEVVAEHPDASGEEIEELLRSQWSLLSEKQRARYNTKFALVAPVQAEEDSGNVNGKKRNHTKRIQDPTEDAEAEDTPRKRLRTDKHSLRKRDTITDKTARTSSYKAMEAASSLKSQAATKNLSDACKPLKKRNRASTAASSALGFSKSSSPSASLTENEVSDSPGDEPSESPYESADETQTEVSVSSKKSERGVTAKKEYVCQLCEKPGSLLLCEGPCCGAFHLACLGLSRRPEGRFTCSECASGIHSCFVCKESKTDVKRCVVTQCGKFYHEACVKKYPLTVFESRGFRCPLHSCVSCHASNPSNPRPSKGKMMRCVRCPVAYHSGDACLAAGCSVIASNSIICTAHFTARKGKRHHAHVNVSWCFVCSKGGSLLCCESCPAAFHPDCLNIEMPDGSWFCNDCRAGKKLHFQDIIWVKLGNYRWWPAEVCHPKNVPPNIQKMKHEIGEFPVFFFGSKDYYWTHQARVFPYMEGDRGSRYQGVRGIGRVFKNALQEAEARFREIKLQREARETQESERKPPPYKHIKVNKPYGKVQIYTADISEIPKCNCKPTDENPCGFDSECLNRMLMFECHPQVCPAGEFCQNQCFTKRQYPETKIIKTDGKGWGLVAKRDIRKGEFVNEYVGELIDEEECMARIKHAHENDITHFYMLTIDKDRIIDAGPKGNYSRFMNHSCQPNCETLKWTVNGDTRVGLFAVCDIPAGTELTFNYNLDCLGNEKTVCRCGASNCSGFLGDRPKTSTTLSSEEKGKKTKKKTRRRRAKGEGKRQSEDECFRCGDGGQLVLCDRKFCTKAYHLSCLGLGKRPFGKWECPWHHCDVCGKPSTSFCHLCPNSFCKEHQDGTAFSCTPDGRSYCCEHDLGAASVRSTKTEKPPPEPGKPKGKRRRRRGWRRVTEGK

Genome polyprotein = Genome polyprotein (dengue virus type 2, UniProt P29990); test: flavivirus cap methylation enzyme inhibition – biochemical, confirmation dose response, primary screen (AID 588689); format: functional
Chain of Genome polyprotein (P29990 2492-3391 limits assumed): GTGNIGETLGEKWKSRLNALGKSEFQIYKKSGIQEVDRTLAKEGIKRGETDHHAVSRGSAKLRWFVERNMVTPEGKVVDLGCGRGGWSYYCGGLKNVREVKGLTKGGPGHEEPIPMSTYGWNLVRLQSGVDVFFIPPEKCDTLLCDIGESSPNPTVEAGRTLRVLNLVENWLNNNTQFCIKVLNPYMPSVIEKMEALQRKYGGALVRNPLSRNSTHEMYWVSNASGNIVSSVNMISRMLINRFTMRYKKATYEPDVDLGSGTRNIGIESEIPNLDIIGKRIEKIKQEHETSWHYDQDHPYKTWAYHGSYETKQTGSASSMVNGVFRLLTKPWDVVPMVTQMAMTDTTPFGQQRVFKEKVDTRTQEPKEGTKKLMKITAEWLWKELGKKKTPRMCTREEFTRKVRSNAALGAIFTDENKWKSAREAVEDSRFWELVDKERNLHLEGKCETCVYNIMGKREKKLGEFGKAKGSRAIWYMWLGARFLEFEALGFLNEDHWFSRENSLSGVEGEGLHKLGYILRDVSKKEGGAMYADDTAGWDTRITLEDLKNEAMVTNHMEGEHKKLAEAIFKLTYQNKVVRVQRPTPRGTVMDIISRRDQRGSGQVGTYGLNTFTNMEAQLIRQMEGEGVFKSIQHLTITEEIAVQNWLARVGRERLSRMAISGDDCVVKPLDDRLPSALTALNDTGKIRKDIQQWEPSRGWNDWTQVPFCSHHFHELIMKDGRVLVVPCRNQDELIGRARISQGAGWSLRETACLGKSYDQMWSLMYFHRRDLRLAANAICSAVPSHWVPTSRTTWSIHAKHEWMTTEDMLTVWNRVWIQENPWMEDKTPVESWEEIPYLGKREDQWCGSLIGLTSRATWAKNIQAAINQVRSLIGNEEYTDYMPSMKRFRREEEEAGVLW

[3] = Luminescence Cell-Based Dose Response HTS to Identify Inhibitors of 5'UTR Stem-Loop Driven Prion Protein mRNA Translation in H4 Neuroglioblastoma Cells. [Related pubchem assays: 1827 (Project Summary), 1813 (Primary HTS)]; format: functional
[4] = luciferase reporter signal suppression in cells – H4 neuroglioma cells, luminescence, dose response (AID 1990); format: functional, cell-based
Vero [5] = test: cells; format: functional; settings: Chlorocebus sabaeus
Streptococcus = test: GAS UMAA2166 growth inhibition – luminescence, BacTiterGlo, counter-screen for streptokinase expression inhibitor project, dose response (AID 1915); format: functional, organism-based;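 further: potency for reduction of bacterial viability or growth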
[6] = system: Streptococcus sp. 'group A'; test: Streptococcus pyogenes SK(-)GAS viability under kanamycin – luminescence, BacTiterGlo, confirmation, counter-screen for streptokinase expression inhibitor project, dose response (AID 1900); format: functional, organism-based
Cytochrome P450 2C9 = Cytochrome P450 2C9 (Homo sapiens, UniProt P11712)
Chain of Cytochrome P450 2C9 (P11712 whole entry): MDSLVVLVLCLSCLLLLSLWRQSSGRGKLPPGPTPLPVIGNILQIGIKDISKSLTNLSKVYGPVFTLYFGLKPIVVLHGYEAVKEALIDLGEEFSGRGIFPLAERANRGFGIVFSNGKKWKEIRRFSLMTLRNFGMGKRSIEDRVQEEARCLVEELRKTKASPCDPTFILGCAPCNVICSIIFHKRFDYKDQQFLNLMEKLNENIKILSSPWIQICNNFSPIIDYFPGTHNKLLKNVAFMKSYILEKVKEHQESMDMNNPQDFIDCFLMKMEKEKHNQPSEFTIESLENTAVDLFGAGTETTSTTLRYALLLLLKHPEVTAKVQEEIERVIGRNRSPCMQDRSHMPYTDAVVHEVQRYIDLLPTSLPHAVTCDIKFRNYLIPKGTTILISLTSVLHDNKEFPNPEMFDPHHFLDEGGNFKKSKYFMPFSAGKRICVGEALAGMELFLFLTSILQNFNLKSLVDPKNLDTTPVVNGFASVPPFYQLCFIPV

Cytochrome P450 2C19 = Cytochrome P450 2C19 (Homo sapiens, UniProt P33261); test: Cytochrome panel assay with activity outcomes. Panel member name: p450-cyp2c19 Compounds with AC50 equal or less than 10 uM are considered active; format: functional; settings: read-out: AC50
Chain of Cytochrome P450 2C19 (P33261 whole entry): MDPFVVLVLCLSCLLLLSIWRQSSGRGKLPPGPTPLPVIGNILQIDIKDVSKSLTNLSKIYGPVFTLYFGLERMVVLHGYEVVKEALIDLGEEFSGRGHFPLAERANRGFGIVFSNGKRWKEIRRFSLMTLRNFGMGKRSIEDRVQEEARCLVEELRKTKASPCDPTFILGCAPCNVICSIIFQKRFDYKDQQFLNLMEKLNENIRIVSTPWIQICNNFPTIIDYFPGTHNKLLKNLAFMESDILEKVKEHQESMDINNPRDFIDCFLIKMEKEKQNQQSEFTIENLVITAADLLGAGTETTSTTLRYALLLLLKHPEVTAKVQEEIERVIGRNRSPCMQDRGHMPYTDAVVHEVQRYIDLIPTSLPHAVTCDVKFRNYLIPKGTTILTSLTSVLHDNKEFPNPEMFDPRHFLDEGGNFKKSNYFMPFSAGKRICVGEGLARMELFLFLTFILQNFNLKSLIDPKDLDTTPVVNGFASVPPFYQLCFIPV

Cytochrome P450 3A4 = Cytochrome P450 3A4 (Homo sapiens, UniProt P08684);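 further: CYP3A4 tested as one member of a cytochrome P450 panel screen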
Chain of Cytochrome P450 3A4 (P08684 whole entry): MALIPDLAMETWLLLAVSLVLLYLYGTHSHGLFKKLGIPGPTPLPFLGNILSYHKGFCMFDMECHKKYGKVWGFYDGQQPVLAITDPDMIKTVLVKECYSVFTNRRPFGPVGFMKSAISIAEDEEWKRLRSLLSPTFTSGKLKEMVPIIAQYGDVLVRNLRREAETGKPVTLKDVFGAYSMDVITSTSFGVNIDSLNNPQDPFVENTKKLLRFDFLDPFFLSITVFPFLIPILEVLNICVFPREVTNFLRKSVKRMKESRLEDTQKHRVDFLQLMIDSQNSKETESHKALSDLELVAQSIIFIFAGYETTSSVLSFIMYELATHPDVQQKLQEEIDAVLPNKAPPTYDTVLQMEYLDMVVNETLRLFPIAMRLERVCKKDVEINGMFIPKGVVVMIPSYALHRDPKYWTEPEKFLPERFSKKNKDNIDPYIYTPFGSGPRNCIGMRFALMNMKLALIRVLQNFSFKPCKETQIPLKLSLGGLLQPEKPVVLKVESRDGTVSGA

[7] = target: T2, Sentrin-specific protease 6 (Homo sapiens, UniProt Q9GZR1); format: functional;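 further: Luminescence-based dose-response confirmatory assay of SENP6 inhibition, following up an ultra-high-throughput screen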
T2 sequence (Q9GZR1 whole entry): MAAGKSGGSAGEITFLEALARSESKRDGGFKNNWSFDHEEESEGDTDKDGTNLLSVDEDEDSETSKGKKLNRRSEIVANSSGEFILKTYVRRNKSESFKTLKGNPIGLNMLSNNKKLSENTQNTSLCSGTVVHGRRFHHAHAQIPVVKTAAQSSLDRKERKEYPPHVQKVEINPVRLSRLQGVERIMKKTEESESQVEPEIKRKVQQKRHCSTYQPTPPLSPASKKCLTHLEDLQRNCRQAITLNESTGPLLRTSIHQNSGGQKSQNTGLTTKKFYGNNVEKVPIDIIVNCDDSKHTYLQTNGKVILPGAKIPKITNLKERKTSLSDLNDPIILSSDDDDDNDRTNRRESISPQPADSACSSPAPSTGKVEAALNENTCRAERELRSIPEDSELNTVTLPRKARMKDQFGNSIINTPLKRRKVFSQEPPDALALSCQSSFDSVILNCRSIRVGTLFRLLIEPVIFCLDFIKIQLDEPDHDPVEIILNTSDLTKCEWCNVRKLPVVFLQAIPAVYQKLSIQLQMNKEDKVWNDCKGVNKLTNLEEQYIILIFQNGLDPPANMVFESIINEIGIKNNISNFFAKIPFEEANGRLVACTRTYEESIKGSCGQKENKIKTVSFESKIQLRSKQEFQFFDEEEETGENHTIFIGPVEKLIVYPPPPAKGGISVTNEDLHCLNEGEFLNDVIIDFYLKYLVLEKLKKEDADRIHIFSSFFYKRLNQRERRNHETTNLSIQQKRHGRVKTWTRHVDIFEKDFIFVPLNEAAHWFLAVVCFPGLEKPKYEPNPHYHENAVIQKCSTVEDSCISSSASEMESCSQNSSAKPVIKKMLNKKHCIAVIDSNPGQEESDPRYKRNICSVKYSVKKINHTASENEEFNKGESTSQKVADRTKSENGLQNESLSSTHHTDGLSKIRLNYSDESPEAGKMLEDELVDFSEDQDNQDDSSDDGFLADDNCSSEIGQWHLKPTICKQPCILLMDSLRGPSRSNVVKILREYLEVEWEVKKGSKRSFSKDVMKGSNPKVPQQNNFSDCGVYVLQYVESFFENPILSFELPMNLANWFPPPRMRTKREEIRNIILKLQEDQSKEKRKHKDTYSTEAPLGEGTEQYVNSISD

[8] = target: T3, Sentrin-specific protease 8 (Homo sapiens, UniProt Q96LD8); format: functional;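 further: luminescence read-out of SENP8 inhibition, dose-response confirmation following an ultra-high-throughput screen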
T3 sequence (Q96LD8 whole entry): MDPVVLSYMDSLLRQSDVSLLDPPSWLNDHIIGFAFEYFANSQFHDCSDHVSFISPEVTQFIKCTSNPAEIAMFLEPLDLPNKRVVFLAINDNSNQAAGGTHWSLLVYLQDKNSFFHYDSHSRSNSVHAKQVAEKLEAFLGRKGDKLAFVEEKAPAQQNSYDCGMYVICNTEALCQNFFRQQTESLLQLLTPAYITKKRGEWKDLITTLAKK

[9] = target: T4, Sentrin-specific protease 7 (Homo sapiens, UniProt Q9BQF6); format: functional;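 further: Luminescence-based dose-response confirmation of ultra-high-throughput screening hits, measuring inhibition of SENP7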
T4 sequence (Q9BQF6 whole entry): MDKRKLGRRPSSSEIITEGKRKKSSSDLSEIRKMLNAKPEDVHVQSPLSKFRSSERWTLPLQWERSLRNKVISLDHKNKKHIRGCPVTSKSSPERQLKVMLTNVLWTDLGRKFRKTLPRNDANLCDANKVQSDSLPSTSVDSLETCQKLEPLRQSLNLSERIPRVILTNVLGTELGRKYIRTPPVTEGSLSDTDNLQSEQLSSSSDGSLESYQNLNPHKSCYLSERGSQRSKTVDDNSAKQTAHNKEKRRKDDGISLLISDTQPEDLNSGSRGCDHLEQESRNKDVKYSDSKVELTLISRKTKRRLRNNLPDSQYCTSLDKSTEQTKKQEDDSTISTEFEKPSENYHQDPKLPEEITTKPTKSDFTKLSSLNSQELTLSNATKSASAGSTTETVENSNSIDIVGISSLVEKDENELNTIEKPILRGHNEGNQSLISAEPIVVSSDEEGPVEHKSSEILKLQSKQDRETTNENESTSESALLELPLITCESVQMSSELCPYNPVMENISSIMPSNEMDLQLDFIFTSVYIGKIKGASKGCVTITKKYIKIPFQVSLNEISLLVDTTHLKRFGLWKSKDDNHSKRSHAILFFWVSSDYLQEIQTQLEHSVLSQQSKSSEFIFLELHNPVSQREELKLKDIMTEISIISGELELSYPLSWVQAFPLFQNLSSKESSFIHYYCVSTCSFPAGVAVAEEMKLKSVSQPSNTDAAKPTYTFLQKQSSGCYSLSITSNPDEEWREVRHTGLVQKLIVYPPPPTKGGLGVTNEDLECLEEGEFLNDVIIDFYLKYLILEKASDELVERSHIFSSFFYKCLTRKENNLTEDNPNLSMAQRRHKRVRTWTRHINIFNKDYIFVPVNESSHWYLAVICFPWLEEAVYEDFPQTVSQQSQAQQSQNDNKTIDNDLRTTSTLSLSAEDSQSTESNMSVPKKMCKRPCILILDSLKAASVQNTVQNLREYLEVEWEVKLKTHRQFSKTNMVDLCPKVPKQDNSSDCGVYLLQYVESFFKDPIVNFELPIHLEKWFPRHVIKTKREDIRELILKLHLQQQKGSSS

Caspase-3 = target: T5, Caspase-3 (Homo sapiens, UniProt P42574); format: functional;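 further: Dose-response selectivity test against caspase-3 for candidate inhibitors of sentrin-specific proteases (SENPs)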
T5 sequence (P42574 whole entry): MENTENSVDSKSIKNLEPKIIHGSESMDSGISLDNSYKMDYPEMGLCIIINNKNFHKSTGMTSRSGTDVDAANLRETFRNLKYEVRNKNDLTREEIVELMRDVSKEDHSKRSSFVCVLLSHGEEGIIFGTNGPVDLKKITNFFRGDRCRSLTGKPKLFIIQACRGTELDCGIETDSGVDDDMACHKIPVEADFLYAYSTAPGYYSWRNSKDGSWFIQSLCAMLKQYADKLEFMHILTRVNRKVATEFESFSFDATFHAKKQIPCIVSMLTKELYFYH

Cytochrome P450 1A2 = target: T6, Cytochrome P450 1A2 (Homo sapiens, UniProt P05177);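 further: PubChem cytochrome P450 panel assay, CYP1A2 panel member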
T6 sequence (P05177 whole entry): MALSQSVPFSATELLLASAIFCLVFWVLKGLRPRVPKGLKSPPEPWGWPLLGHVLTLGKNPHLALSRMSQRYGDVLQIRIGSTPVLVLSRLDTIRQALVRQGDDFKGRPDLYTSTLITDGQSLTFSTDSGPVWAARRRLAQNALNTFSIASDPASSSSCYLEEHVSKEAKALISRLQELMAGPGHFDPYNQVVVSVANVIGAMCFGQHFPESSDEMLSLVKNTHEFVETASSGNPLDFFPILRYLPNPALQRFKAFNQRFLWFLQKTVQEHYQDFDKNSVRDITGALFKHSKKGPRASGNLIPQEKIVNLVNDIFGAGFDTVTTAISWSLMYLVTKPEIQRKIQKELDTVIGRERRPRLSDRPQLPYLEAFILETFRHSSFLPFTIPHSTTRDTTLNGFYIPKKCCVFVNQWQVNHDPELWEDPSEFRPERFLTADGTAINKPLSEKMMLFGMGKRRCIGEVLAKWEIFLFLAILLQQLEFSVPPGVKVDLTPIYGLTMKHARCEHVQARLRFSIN

Structure (SMILES): COc1ccc(N2Cc3ccccc3C2=O)cc1
- AC50 (HEK293): 12.5 µM (active)

Structure (SMILES): NC(=O)c1ccccc1N/C=C/C(=O)c1cccs1
- AC50 (HEK293): 22.5 µM (active)

Structure (SMILES): Cc1ccc(S(=O)(=O)/N=C2\C=C(NS(=O)(=O)c3ccccc3)C(=O)c3ccccc32)cc1
- CC50 (Vero [1]): > 40 µM (active)
- AC50 [2]: 2.18 µM (active)
- IC50 (Genome polyprotein): 35.8 µM (active)

Structure (SMILES): CC(=O)Nc1ccc(C=NNc2nnc(NN=Cc3ccc(NC(C)=O)cc3)c3ccccc23)cc1
- AC50 (HEK293): 0.932 µM (active)

Structure (SMILES): Cc1n[nH]c(O)c1C(c1c(C)n[nH]c1O)c1cn(Cc2ccc(Cl)c(Cl)c2)c2ccccc12
- EC50 [3]: 0.26 µM (active)
- EC50 [4]: 13.6 µM (active)
- CC50 (Vero [5]): 10.1 µM (active)
- CC50 (Vero [1]): 5.47 µM (active)
- EC50 (Streptococcus): 77.9 µM (active)
- EC50 [6]: 4.35 µM (active)

Structure (SMILES): CCc1ccc(C(=O)COC(=O)c2cccc(N3C(=O)c4c(C)nc5ccccc5c4C3=O)c2)cc1
- AC50 (Cytochrome P450 2C9): 3.16 µM (inconclusive)
- AC50 (Cytochrome P450 2C19): 7.08 µM (inconclusive)
- AC50 (Cytochrome P450 3A4): 22.4 µM (inconclusive)
- AC50 (HEK293): 16.7 µM (active)

Structure (SMILES): CCOc1ccc(/N=C/c2c(O)oc3ccccc3c2=O)cc1
- IC50 [7]: 26.2 µM (active)
- IC50 [8]: > 100 µM (inactive)
- IC50 [9]: 6.32 µM (active)
- IC50 (Caspase-3): 32.8 µM (active)

Structure (SMILES): O=C(Nc1nc2ccc(F)cc2s1)C1=COCCO1
- AC50 (HEK293): 2.38 µM (active)

Structure (SMILES): COc1ccc(NC(=O)c2ccc(OCC3CCCO3)cc2)cc1Cl (centres undefined)
- IC50 [7]: > 100 µM (inactive)
- IC50 [8]: > 100 µM (inactive)
- IC50 [9]: 5.56 µM (active)
- IC50 (Caspase-3): 15.6 µM (active)

Structure (SMILES): Cc1sc2c(c1C)C(c1ccc(C(C)(C)C)cc1)=NCC(=O)N2CC(=O)Nc1nccs1
- CC50 (Vero [1]): > 40 µM (active)
- AC50 (Cytochrome P450 1A2): 22.4 µM (inconclusive)

Structure (SMILES): NC(=S)N=Nc1c(O)cc(O)c2nc(O)ccc12
- CC50 (Vero [1]): > 40 µM (active)
- IC50 (Genome polyprotein): 20 µM (active)
